# Laboratory results taken from PMC6410202, “Dual Action of the PN159/KLAL/MAP Peptide: Increase of Drug Penetration across Caco-2 Intestinal Barrier Model by Modulation of Tight Junctions and Plasma Membrane Permeability” (Pharmaceutics, 2019).
# Legend:
# [1] = tested on: Caco-2 cell layers; assay: Transepithelial electrical resistance (TEER) of Caco-2 cell layers; type: cell-based, human; details: for TEER, % of the control value: PN159 10 μM
# Protocol: For the measurement of barrier integrity Caco-2 cells were seeded onto culture inserts (Transwell 3460, polyester membrane, 0.4 µm pore size, Corning Costar) and cultured for three weeks. Transepithelial electrical resistance (TEER) reflects the tightness of the intercellular junctions. […]. Resistance of cell-free inserts (130 Ω × cm^2) was subtracted from the measured values. TEER values were measured before and right after permeability experiments). TEER values indicated the integrity and paracellular permeability of cell layers for ions. The TEER of Caco-2 monolayers was 1302 ± 49 Ω × cm^2 (mean ± SD; n = 46) after 3 weeks culturing. For the recovery experiment, after changing the 10 μM peptide solutions to culture medium, TEER was monitored for one day.
# [2] = tested on: Caco-2 cells; assay: Impedance measurement (RTCA), Caco-2 cells; type: cell-based; details: PN159 1-100 μM, 1-h or one-day treatment
# Protocol: Kinetics of epithelial cell reaction to PN159 peptide treatment was monitored by impedance measurement at 10 kHz (RTCA-SP instrument, ACEA Biosciences, San Diego, CA, USA). Impedance measurement is non-invasive, label-free and real time, and linearly correlates with adherence, growth, number and viability of cells. For background measurements 50 μL cell culture medium was added to the wells, then cells were seeded at a density of 6 × 10^3 cells/well to the coated 96-well plates with integrated gold electrodes (E-plate 96, ACEA Biosciences). Cells were cultured for 5–7 days in a CO2 incubator at 37 °C and monitored every 10 min until the end of experiments. Cells were treated with PN159 peptide solutions at 1, 3, 10, 30 and 100 μM concentrations at the beginning of the plateau phase of growth and the effects were followed for 1-h or 24 h. To measure cell recovery, peptide solutions were changed to culture medium and the impedance was monitored for one week. Culture medium was changed every 2 days. Caco-2 cells were also treated with the three selected CPPs, Pep-1, R8 and φ-peptide, at 100 μM concentrations at the beginning of the plateau phase of cell growth for 24-h. Triton X-100 detergent (1 mg/mL) was used as a reference compound to induce cell death. Cell index was defined as Rn-Rb at each time point of measurement, where Rn is the cell-electrode impedance of the well when it contains cells and Rb is the background impedance of the well with the medium alone.
smiles,measurement,setting,value
CC(C)C[C@H](NC(=O)[C@H](C)NC(=O)[C@H](CCCCN)NC(=O)[C@H](CC(C)C)NC(=O)[C@H](C)NC(=O)[C@H](CC(C)C)NC(=O)[C@H](CCCCN)NC(=O)[C@H](CC(C)C)NC(=O)[C@H](C)NC(=O)[C@H](CC(C)C)NC(=O)[C@@H](N)CCCCN)C(=O)N[C@@H](CCCCN)C(=O)N[C@@H](C)C(=O)N[C@@H](C)C(=O)N[C@@H](CC(C)C)C(=O)N[C@@H](CCCCN)C(=O)N[C@@H](CC(C)C)C(=O)N[C@@H](C)C(N)=O [PN159],TEER recovery,"[1]; 20 h after removal of PN159 (10 μM, 30 min)",complete recovery
same,"TEER, % of the control value",[1]; 1-min treatment,42%
same,"TEER, % of the control value",[1]; 5 min,16%
same,"TEER, % of the control value",[1]; 15 min,2.7%
same,"TEER, % of the control value",[1]; 30 min,1.4%
same,Decrease in TEER,"[1]; PN159 10 and 30 μM, 1-h treatment",80–90%
same,Resistance of epithelial cell layers (TEER),"[1]; all tested concentrations (1, 3, 10, 30 μM), 1-h treatment",significantly decreased the resistance
same,Cell impedance (normalized cell index),[2],only the two highest peptide concentrations decreased the cell impedance
